Laboratory results published in patent US12318452B2, “Degraders of WEE1 kinase” (DANA-FARBER CANCER INSTITUTE, INC., priority 2018, dated 2025).

What was measured:
Assay type in all cases: cell-based
MOLT4 cells = assay: Cell cycle analysis by propidium iodide staining
Experimental: MOLT4 cells were plated at 1.5 million cells per well in a 6-well plate, with 3 mL of media per well. Immediately after plating, cells were treated with the indicated concentrations of the indicated compound. At the indicated time points, cells were collected by transferring each well to a 15 mL conical, centrifuging (1000 rpm for 3 min), and then washing the cell pellet 3× with cold PBS. Cell pellets were then fixed with 1 mL cold 80% ethanol in PBS at 4° C. overnight. The cell pellets were then washed by adding 1 mL of PBS and then centrifuging (1500 rpm for 5 minutes), followed by aspiration of the PBS/ethanol mix. Cells were resuspended in cell cycle staining solution (100 μg/mL of RNAse A (Roche, 10109169001) and 50 μg/mL propidium iodide (Life Technologies™, P1304MP), diluted in PBS, and incubated for 10 minutes at room temperature. Cell cycle data was acquired by flow cytometry on a Guava® easyCyte™ flow cytometer (Millipore™) using the InCyte™ software. Data was analyzed using FlowJo®. N=3 biological replicates were used for each treatment condition.

[1] = test system: MOLT4 cells (parental, wild type); assay: CellTiter-Glo cell viability, 72 hours; details: Homo sapiens, MOLT-4, 72 hours, read-out: Antiproliferative IC50
Experimental: The indicated cell lines were plated in flat bottom 384-well plates (Corning® cat #3570). MOLT4 cells were plated at a density of 3,000 cells per well in 50 μL media, while OVCAR8, COV362, and Kuramochi cells were plated at a density of 750 cells per well in 50 μL media. Cells were treated the next day (except for MOLT4 cells, which were treated the same day as plating) with 0.1 μL of the indicated compounds in a four-fold dilution series using the Janus pinner. Cells were incubated with compounds for 72 hours at 37° C. 5% CO2. Anti-proliferative effects were then assessed by CellTiter-Glo® Luminescent Cell Viability Assay (Promega™ cat #G7570) according to the manufacturer's standards, measuring luminescence using an EnVision® plate-reader. IC50 values were determined using a non-linear regression curve fit in GraphPad Prism 8. N=4 biological replicates were used for each treatment condition.
MOLT4 cells were plated in a 384-well plate at 5,000 cells per well in 50 μL media (RPMI+10% FBS+1% Penn/Strep) and treated with 0.1 μL of the candidate compounds in four-fold dilution series using the Janus pinner. Cells were incubated with compounds for 72 hours at 37° C. 5% CO2. Anti-proliferative effects of these compounds were assessed 72 hours after compound addition using CellTiter-Glo® (Promega, cat #G7571). All proliferation assays were performed in biological quadruplicate. […] Effects upon cell viability for compound 13 in the MOLT4 WT cells are therefore likely driven in part by Wee1 inhibition, and in part by CRBN-mediated Wee1 degradation. […] Degradation of Wee1 with compound 21 was mediated by VHL.

Wee1 = Wee1 (Homo sapiens, UniProt P30291); assay: Cellular degradation of Wee1 by immunoblot, 6-hour treatment of MOLT4 cells; parameters: endogenous in cells; host or cells: MOLT4 (wild type; CRBN-/- as control); details: for Wee1 degradation / percent Wee1 degradation at 1 µM: MOLT4 cells; for Wee1 degradation: immunoblot; for percent Wee1 degradation at 1 µM: MOLT-4, 1 μM, approximated by immunoblot, read-out: Extent of Degradation of Wee1
Experimental: General Protocol: HT-29, MOLT4 wild type (WT) or CRBN^-/- cells were plated in a 6 well plate and treated for 6 hours with the indicated concentrations of the inventive compounds and control. HT-29 cells were cultured in McCoy's Media supplemented with 10% FBS and 1% Penicillin/Streptomycin. MOLT4 WT and CRBN^-/- cells were cultured in Roswell Park Memorial Institute (RPMI) medium supplemented with 10% FBS and 1% Penicillin/Streptomycin. Mycoplasma testing was performed every month and all lines were negative. Immunoblotting: Cells were washed with phosphate-buffered saline (PBS) and then lysed using radioimmunoprecipitation assay (RIPA) buffer supplemented with protease and phosphatase inhibitor cocktail (Roche) on ice for 15 minutes. The lysates were centrifuged at 14,000 rpm for 15 minutes at 4° C. and protein was quantified by bicinchoninic acid (BCA) assay (PierceTM). Primary antibodies used include: Wee1 ([…]) (Cell Signaling Technology®, 13084S), polo-like kinase 1 (PLK1) (Thermo Fisher Scientific, 37-7000), phosphor-cdc2 (Y15) (10A11) (Cell Signaling Technology®, […]), phospho-histone H3 ([…]) (Cell Signaling Technology®, […]), Ikaros ([…]) (Cell Signaling Technology®, 14859S), Aiolos ([…]) (Cell Signaling Technology®, 15103), casein kinase 1 alpha (Abcam®, 108296), β-actin (Cell Signaling Technology®, 8H10D10). FIG. 2A is an immunoblot showing that compound 13 degraded Wee1 after a 6-hour treatment in MOLT4 cells, and induced the downstream changes expected from Wee1 loss-including a decrease in phosphorylated cyclin-dependent kinase 1 (pCDK1) (Y15) and an increase in pH 3. […] Degradation of Wee1 by compound 13 was rescued in MOLT4 CRBN^-/- cells. MOLT4 WT and CRBN^-/- cells were plated in a 6-well plate at 2.25 million cells per well in 3 mL media (RPMI+10% FBS+1% Penn/Strep). After treatment with the indicated concentrations of candidate compounds, cells were incubated for 6 hours at 37° C. 5% CO2. To harvest, the cells were washed 1× with cold PBS, then collected by centrifugation. Cell pellets were lysed in RIPA buffer with protease and phosphatase inhibitors (Roche). Lysates were clarified by centrifugation, and protein concentrations were normalized using a BCA assay (Thermo ScientificTM). The samples were diluted with 4×LDS+10% β-mercaptoethanol, and were boiled at 95° C. for 5 minutes. Proteins of interest were then assessed by western blotting. […] The experimental protocol was the same as in Example 28.

Sequence of Wee1 (P30291 whole entry): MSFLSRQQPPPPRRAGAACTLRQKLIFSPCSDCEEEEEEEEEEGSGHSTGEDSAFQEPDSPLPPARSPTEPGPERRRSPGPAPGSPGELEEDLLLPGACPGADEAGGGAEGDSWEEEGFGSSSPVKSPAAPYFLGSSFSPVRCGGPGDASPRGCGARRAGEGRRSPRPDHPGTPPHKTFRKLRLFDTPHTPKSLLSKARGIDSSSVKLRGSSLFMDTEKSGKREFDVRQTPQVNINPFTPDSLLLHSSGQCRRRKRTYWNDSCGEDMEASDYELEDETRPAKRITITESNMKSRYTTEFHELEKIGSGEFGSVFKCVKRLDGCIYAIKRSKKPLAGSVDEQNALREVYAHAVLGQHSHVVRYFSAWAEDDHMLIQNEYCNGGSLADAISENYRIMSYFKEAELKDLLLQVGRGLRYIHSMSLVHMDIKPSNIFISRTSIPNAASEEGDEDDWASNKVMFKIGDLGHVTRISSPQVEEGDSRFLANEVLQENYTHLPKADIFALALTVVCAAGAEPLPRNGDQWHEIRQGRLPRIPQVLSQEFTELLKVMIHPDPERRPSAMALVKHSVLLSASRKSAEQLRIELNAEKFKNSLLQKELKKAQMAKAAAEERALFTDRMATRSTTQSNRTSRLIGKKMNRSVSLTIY

## C=CCn1c(=O)c2cnc(Nc3ccc(N4CCN(CCCNc5cccc6c5C(=O)N(C5CCC(=O)NC5=O)C6=O)CC4)cc3)nc2n1-c1cccc(C(C)(C)O)n1 (centres unmarked) [Compound 13, 4-((3-(4-(4-((2-allyl-1-(6-(2-hydroxypropan-2-yl)pyridin-2-yl)-3-oxo-2,3-dihydro-1H-pyrazolo[3,4-d]pyrimidin-6-yl)amino)phenyl)piperazin-1-yl)propyl)amino)-2-(2,6-dioxopiperidin-3-yl)isoindoline-1,3-dione]
MOLT4 cells; 100 nM, 24-hr treatment, MOLT4 cells, control 19%
  G2-M cells: 34%
MOLT4 cells; CRBN−/− MOLT4 cells, 24 hours
  Cell cycle effects in CRBN−/− cells: absent
MOLT4 cells; MOLT4 cells
  Fold lower doses than AZD1775 inducing premature mitotic entry: 10 fold
[1]
  IC50: 390 nM
Wee1; MOLT4 CRBN−/− cells
  Wee1 degradation in CRBN−/− cells: rescued
Wee1
  Wee1 degradation: degraded Wee1
  percent Wee1 degradation at 1 µM: > 50%

## C=CCn1c(=O)c2cnc(Nc3ccc(N4CCN(CCCNc5cccc6c5C(=O)N(C5CCC(=O)N(C)C5=O)C6=O)CC4)cc3)nc2n1-c1cccc(C(C)(C)O)n1 (centres unmarked) [Compound 20, 4-((3-(4-(4-((2-allyl-1-(6-(2-hydroxypropan-2-yl)pyridin-2-yl)-3-oxo-2,3-dihydro-1H-pyrazolo[3,4-d]pyrimidin-6-yl)amino)phenyl)piperazin-1-yl)propyl)amino)-2-(1-methyl-2,6-dioxopiperidin-3-yl)isoindoline-1,3-dione]
MOLT4 cells; 100 nM, 24-hr, MOLT4 cells
  Effect on the cell cycle: did not appreciably affect the cell cycle
[1]
  IC50: 4560 nM
Wee1
  Wee1 degradation: did not degrade Wee1
  percent Wee1 degradation at 1 µM: < 25%
